Counter-ions that a name gives are not always drawn.
Columns and labels:
[1] = test system: spinocerebellar ataxia (SCA); assay: Phase 3 clinical study of troriluzole in spinocerebellar ataxia: f-SARA total score change; format: in vivo, human; conditions: for LS mean change difference in f-SARA score from baseline vs placebo: Week 48, 200 mg daily
Protocol: Phase 3 Clinical Study for Troriluzole in Adult Subjects with Spinocerebellar Ataxia
(§1) The purpose of this study is to compare the efficacy of Troriluzole (200 mg once daily) versus placebo after 48 weeks of treatment in subjects with spinocerebellar ataxia (SCA).
(§2) • Study Type: Interventional (Clinical Trial) • Actual Enrollment: 218 participants • Allocation: Randomized • Intervention Model: Parallel Assignment • Masking: Triple (Participant, Care Provider, Investigator) • Primary Purpose: Treatment • Official Title: A Phase III, Long-Term, Randomized, Double-blind, Placebo-controlled Trial of Troriluzole in Adult Subjects With Spinocerebellar Ataxia.
(§3) • Arm • Experimental: Arm 1: BHV-4157 • Troriluzole 200 mg by mouth • Placebo Comparator: Arm 2: Placebo • Placebo 200 mg by mouth • Intervention/Treatment • Drug: troriluzole • 200 mg by mouth • Drug: placebo • 200 mg by mouth
• 1. Change from Baseline in the total score of the Modified Functional Scale for the Assessment and Rating of Ataxia (f-SARA) after 48 weeks of treatment. [Time Frame: Baseline to week 48] • An increase in the total score indicates a worsening of symptoms.
• 1. Subjects with a known or suspected diagnosis of the following specific hereditary ataxias: SCA1, SCA2, SCA3, SCA6, SCA7, SCA8 and SCA10; currently only enrolling SCA 1, SCA2, SCA3, SCA7, and SCA10 (the cap has been met for SCA6 and SCA8 (on May 31, 2019)); • a. A subject should have a confirmed genotypic diagnosis from a CLIA certified lab (can produce test results); or • b. A subject has a family member that has a confirmed genotypic diagnosis from a CLIA certified lab (can produce test results) and must be willing to undergo genetic testing to confirm underlying SCA diagnosis; or • c. A subject has a confirmed genotypic diagnosis from a lab that is not CLIA certified and must be willing to undergo genetic testing to confirm underlying SCA diagnosis; or • d. […] Ability to ambulate 8 meters without human assistance (canes and other devices allowed). • 3. Screening f-SARA total score ≥3. • 4. Score of ≥1 on gait subsection of the f-SARA. • 5. Determined by the investigator to be medically stable at Baseline/randomization as assessed by medical history, physical examination, laboratory test results, and electrocardiogram testing.
• 1. A ≥2-point difference on the Modified Functional SARA score between screening and baseline. • 2. MMSE score <24. • 3. […] A prominent spasticity or dystonia that, in the opinion of the investigator, will compromise the ability of the SARA instrument to assess underlying ataxia severity. • 5. A score of 4 on any individual item (Items 1-4) of the f-SARA. • 6. Subjects should be excluded at screening or baseline if medical conditions have arisen or there is a change in disease status that could confound the ability of the SARA to accurately reflect changes in ataxia severity. • 7. Active liver disease or a history of hepatic intolerance to medications that in the investigator's judgment, is medically significant.

[2] = test system: spinocerebellar ataxia (SCA); assay: Phase 3 clinical study: adverse events of fall, safety and tolerability; format: in vivo, human
Protocol: as §1, §2, §3
• 1. Change from baseline in Patient Impression of Function and Activities of Daily Living Scale (PIFAS) score at Randomization Phase Week 48. [Time Frame: Baseline to week 48] • An increase in the total score indicates a worsening of symptoms. • 2. Change from baseline in Activities of Daily Living Scale from the Friedreich's Ataxia Rating Scale (FARS-ADL) at Randomization Week 48. [Time Frame: Baseline to week 48] • An increase in the total score indicates a worsening of symptoms. • 3. Change from baseline in Functional Staging for Ataxia from the Friedreich's Ataxia Rating Scale (FARS-FUNC) at Randomization Phase Week 48. [Time Frame: Baseline to week 48] • An increase in the total score indicates a worsening of symptoms. • 4. Frequency of subjects with the following adverse events (AEs) identified from case report forms: AEs (by severity; by relationship to study drug; overall); SAEs; and AEs leading to treatment discontinuation. [Time Frame: Baseline to week 48]

[3] = Solubility of drug substance in water; format: physicochemical

CN(CC(=O)Nc1nc2ccc(OC(F)(F)F)cc2s1)C(=O)CNC(=O)CN [troriluzole, 2-amino-N-({methyl-[(6-trifluoromethoxy-benzothiazol-2-ylcarbamoyl)-methyl]-carbamoyl}-methyl)-acetamide monohydrate monohydrochloride]
LS mean change difference compared to placebo ([1]; SCA3 patient able to walk without assistance at baseline, week 4, 200 mg daily): at least −0.67 | LS mean change difference compared to placebo ([1]; SCA3 patient, week 4, 200 mg daily): at least −0.46 | LS mean change difference compared to placebo ([1]; SCA3 patient, week 8, 200 mg daily (first statement)): at least −0.12 | LS mean change difference compared to placebo ([1]; SCA3 patient, week 8, 200 mg daily (subgroup not given)): at least −0.33 | LS mean change difference compared to placebo ([1]; SCA3 patient, week 12, 200 mg daily (first statement)): at least −0.46 | LS mean change difference compared to placebo ([1]; SCA3 patient, week 12, 200 mg daily (subgroup not given)): at least −0.71 | LS mean change difference compared to placebo ([1]; SCA3 patient, week 24, 200 mg daily (first statement)): at least −0.17 | LS mean change difference compared to placebo ([1]; SCA3 patient, week 24, 200 mg daily (subgroup not given)): at least −0.40 | LS mean change difference compared to placebo ([1]; SCA3 patient, week 36, 200 mg daily (first statement)): at least −0.72 | LS mean change difference compared to placebo ([1]; SCA3 patient, week 36, 200 mg daily (subgroup not given)): at least −0.55 | LS mean change difference in f-SARA score from baseline vs placebo ([1]; SCA3 patients able to walk without assistance at baseline (f-SARA Gait Item score=1), nominal p=0.031, 95% CI −1.36, −0.07): −0.71 | LS mean change difference in f-SARA score from baseline vs placebo ([1]; SCA3 subgroup, nominal p=0.053, 95% CI −1.12, 0.01, post-hoc): −0.55 | primary endpoint, change from baseline to Week 48 on f-SARA (statistical outcome) ([1]; overall SCA population, 200 mg once daily vs placebo, 48 weeks, p=0.76): did not reach statistical significance | f-SARA score at the 48-week endpoint ([1]; overall study population N=213, mean baseline score 4.9, 200 mg once daily, placebo 5.2): 5.1 | reduction of fall risk versus placebo ([2]; SCA3 genotype, patient reported falls as adverse events, nominal p=0.04): approximately 50% | AE incidence of falls ([2]; SCA3 genotype, placebo 32%): 16% | reduction of fall risk versus placebo ([2]; all genotypes, patients able to ambulate at baseline (f-SARA Gait Item score=1), nominal p=0.043): approximately 59% | AE incidence of falls ([2]; all genotypes, patients able to ambulate at baseline (f-SARA Gait Item score=1), placebo 23%): 10% | safety and tolerability profile ([2]; overall, Phase 3 study): favorable safety and tolerability profile | solubility in water [3]: freely soluble in water

— patent publication US20260124183A1, “METHODS OF TREATING SPINOCEREBELLAR ATAXIAS” (Biohaven Therapeutics Ltd., priority 2022, published 2026)
